Source: ChEMBL document CHEMBL1126665, “o-Chlorobenzenesulfonamidic derivatives of (aryloxy)propanolamines as beta-blocking/diuretic agents” (J Med Chem, 1993)
Several values for one entry are separate records, joined by “and”; a condition that tells them apart may be missing. Equal entries are not always repeated. Activity calls are given as the source filed them. No cut-off for these calls is given here.

Assays:
Rattus norvegicus [1] = assay: Diuretic activity given as urinary output of 15 mg/kg perorally administered compound in rats; assay type: functional, Urine; details: route oral
Rattus norvegicus [2] = assay: Saluretic activity was evaluated for Na+ by flame photometry at 30 mg/kg perorally; assay type: functional; details: route oral
Rattus norvegicus [3] = assay: Saluretic activity was evaluated for K+ by flame photometry at 30 mg/kg perorally; assay type: functional; details: route oral
Rattus norvegicus [4] = assay: Saluretic activity was evaluated for Na+ by flame photometry at 8 mg/kg perorally; assay type: functional; details: route oral
Rattus norvegicus [5] = assay: Saluretic activity was evaluated for K+ by flame photometry at 8 mg/kg perorally; assay type: functional; details: route oral
Rattus norvegicus [6] = assay: Saluretic activity was evaluated for K+ by flame photometry at 15 mg/kg perorally; assay type: functional; details: route oral
[7] = Ratio of saluretic activity for Na+ over saluretic activity of K+ in rats after peroral administration of 8 mg/kg of compound; assay type: functional; details: route oral
Rattus norvegicus [8] = assay: Saluretic activity was evaluated for Na+ by flame photometry at 15 mg/kg perorally; assay type: functional; details: route oral
Rattus norvegicus [9] = assay: Diuretic activity given as urinary output of 30 mg/kg perorally administered compound in rats; assay type: functional, Urine; details: route oral
[10] = Ratio of saluretic activity for Na+ over saluretic activity of K+ in rats after peroral administration of 15 mg/kg of compound; assay type: functional; details: route oral
[11] = Ratio of saluretic activity for Na+ over saluretic activity of K+ in rats after peroral administration of 30 mg/kg of compound; assay type: functional; details: route oral
Rattus norvegicus [12] = assay: Diuretic activity given as urinary output of 8 mg/kg perorally administered compound in rats; assay type: functional, Urine; details: route oral
[13] = target: Beta-1 adrenergic receptor (Homo sapiens, UniProt P08588)
[14] = target: T1, Adrenergic receptor beta (Rattus norvegicus) (UniProt P18090+P10608+P26255)
Description: beta-adrenoceptor blocking activity of the intravenously administered compound was evaluated by inhibition of isiprenaline-induced tachycardia in rats; NA indicates not active

[15] = target: T1, Adrenergic receptor beta (Rattus norvegicus); remark: listed apart in the source
Description: beta-adrenoceptor blocking activity of the perorally administered compound was evaluated by inhibition of isiprenaline-induced tachycardia in rats; NA indicates not active

[16] = target: Beta-1 adrenergic receptor (Meleagris gallopavo) (UniProt P07700); assay: Inhibition of [3H]dihydroalprenolol binding ([3H]-DHA) to beta-1-adrenoceptor from turkey erythrocyte membranes; Not active
Rattus norvegicus [17] = assay: Diuretic activity given as urinary output at 15 mg/kg perorally; assay type: functional, Urine; details: route oral
Rattus norvegicus [18] = assay: Saluretic activity was evaluated for K+ by flame photometry at 50 mg/kg perorally; assay type: functional; details: route oral
Rattus norvegicus [19] = assay: Saluretic activity was evaluated for Na+ by flame photometry at 50 mg/kg perorally; assay type: functional; details: route oral
[20] = Ratio of saluretic activity for Na+ over saluretic activity of K+ in rats after peroral administration of 50 mg/kg of compound; assay type: functional; details: route oral
Rattus norvegicus [21] = assay: Diuretic activity given as urinary output of 50 mg/kg perorally administered compound in rats; assay type: functional, Urine; details: route oral

Sequence of Beta-1 adrenergic receptor (P08588 whole entry): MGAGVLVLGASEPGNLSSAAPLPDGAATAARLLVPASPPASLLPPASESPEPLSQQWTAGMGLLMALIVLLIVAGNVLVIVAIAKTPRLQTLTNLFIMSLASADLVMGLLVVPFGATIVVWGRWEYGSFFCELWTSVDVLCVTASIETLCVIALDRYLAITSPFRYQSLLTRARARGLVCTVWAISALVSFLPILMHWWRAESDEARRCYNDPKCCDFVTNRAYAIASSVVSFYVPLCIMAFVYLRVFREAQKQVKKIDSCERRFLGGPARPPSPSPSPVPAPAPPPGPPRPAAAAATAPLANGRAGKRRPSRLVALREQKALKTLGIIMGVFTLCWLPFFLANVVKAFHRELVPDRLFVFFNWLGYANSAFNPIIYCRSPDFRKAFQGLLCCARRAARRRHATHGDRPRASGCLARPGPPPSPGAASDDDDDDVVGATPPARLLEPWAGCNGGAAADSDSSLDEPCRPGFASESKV
Sequence of Beta-1 adrenergic receptor (Meleagris gallopavo) (P07700 whole entry, looked up): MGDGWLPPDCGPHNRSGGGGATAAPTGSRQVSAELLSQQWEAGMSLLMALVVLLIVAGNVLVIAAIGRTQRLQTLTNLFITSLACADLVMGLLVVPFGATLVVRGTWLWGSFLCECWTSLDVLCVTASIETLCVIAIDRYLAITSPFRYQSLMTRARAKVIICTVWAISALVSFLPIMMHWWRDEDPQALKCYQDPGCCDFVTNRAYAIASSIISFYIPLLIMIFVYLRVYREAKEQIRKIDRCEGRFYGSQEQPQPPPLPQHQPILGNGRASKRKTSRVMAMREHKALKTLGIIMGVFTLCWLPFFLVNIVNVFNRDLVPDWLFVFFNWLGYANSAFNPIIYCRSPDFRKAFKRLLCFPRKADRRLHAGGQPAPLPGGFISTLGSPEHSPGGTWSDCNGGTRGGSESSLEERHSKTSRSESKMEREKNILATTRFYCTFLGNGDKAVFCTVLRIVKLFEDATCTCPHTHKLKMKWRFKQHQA

Row | Ki [13] | SMILES | Urinary output (Rattus norvegicus [1]) [mL] | Activity (Rattus norvegicus [2]) [m equiv kg-1] | Activity (Rattus norvegicus [3]) [m equiv kg-1] | Activity (Rattus norvegicus [4]) [m equiv kg-1] | Activity (Rattus norvegicus [5]) [m equiv kg-1] | Activity (Rattus norvegicus [6]) [m equiv kg-1] | Ratio [7] | Activity (Rattus norvegicus [8]) [m equiv kg-1] | Urinary output (Rattus norvegicus [9]) [mL] | Ratio [10] | Ratio [11] | Urinary output (Rattus norvegicus [12]) [mL] | further results
1 |  | NS(=O)(=O)c1cc(C(=O)NCCNCC(O)COc2cccc3ccccc23)ccc1Cl (stereo not given) | 4.8 | 1.8 | 1.4 | 2.5 | 1.2 | 1.7 | 2.1 | 3.1 | 2.9 | 1.8 | 1.2 | 5.2 | 
2 | Not Active | NS(=O)(=O)c1cc(S(=O)(=O)N2CCN(CC(O)COc3cccc4ccccc34)CC2)ccc1Cl (stereo not given) |  |  |  |  |  |  |  |  |  |  |  |  | 
3 | Not Active | NS(=O)(=O)c1cc(NCCNCC(O)COc2cccc3c2CCC(=O)N3)ccc1Cl (stereo not given) |  |  |  |  |  |  |  |  |  |  |  |  | 
4 |  | NS(=O)(=O)c1cc(S(=O)(=O)NCCNCC(O)COc2cccc3ccccc23)ccc1Cl (stereo not given) |  |  |  |  |  |  |  |  |  |  |  |  | ED50 [14]: inactive; ED50 [15]: inactive
5 | Not Active | NS(=O)(=O)c1cc(S(=O)(=O)N2CCN(CC(O)COc3cccc4c3SCC(=O)N4)CC2)ccc1Cl (stereo not given) |  |  |  |  |  |  |  |  |  |  |  |  | 
6 |  | NS(=O)(=O)c1cc(S(=O)(=O)NCCNCC(O)COc2cccc3c2SCC(=O)N3)ccc1Cl (stereo not given) | 3.7 | 4.5 | 2.4 | 3.2 | 1.3 | 1.3 | 2.5 | 3 | 5.7 | 2.3 | 1.9 | 3.5 | 
7 |  | NS(=O)(=O)c1cc2c(cc1Cl)NCNS2(=O)=O [HYDROCHLOROTHIAZIDE] | 5.9 | 5.1 | 2.3 | 3.1 | 1.8 | 1.9 | 1.7 | 3.9 | 7.3 | 2 | 2.2 | 4 | 
8 | Not Active | NS(=O)(=O)c1cc(C(=O)N2CCN(CC(O)COc3cccc4c3SCC(=O)N4)CC2)ccc1Cl (stereo not given) |  |  |  |  |  |  |  |  |  |  |  |  | 
9 | Not Active | NS(=O)(=O)c1cc(C(=O)N2CCN(CC(O)COc3cccc4c3CCC(=O)N4)CC2)ccc1Cl (stereo not given) |  |  |  |  |  |  |  |  |  |  |  |  | 
10 |  | NS(=O)(=O)c1cc(NCCNCC(O)COc2cccc3c2SCC(=O)N3)ccc1Cl (stereo not given) | 3.3 | 2.2 | 1.2 | 2.1 | 1.1 | 1.3 | 1.9 | 2.6 | 3.1 | 2 | 1.8 | 2.6 | 
11 | Not Active | NS(=O)(=O)c1cc(S(=O)(=O)N2CCN(CC(O)COc3cccc4c3CCC(=O)N4)CC2)ccc1Cl (stereo not given) |  |  |  |  |  |  |  |  |  |  |  |  | 
12 |  | NS(=O)(=O)c1cc(C(=O)N2CCN(CC(O)COc3cccc4ccccc34)CC2)ccc1Cl (stereo not given) |  |  |  |  |  |  |  |  |  |  |  |  | Ki [16]: Not Active
13 |  | NS(=O)(=O)c1cc(N2CCN(CC(O)COc3cccc4c3SCC(=O)N4)CC2)ccc1Cl (stereo not given) | 3.1 | 3 | 2 | 2.2 | 1.7 | 1.8 | 1.3 | 2.9 | 3.5 | 1.6 | 1.5 | 2.6 | ED50 [14]: inactive
14 |  | NS(=O)(=O)c1cc(NCCNCC(O)COc2cccc3ccccc23)ccc1Cl (stereo not given) | 3.2 | 3.2 | 2.6 | 2.8 | 1.6 | 2 | 1.7 | 3.1 | 3.5 | 1.5 | 1.2 | 2.4 | ED50 [14]: inactive
15 |  | NS(=O)(=O)c1cc(S(=O)(=O)NCCNCC(O)COc2cccc3c2CCC(=O)N3)ccc1Cl (stereo not given) |  | 3.4 | 1.5 | 1.8 | 0.9 | 1.2 | 2 | 2.3 |  | 1.9 | 2.3 | 2.2 | Urinary output (Rattus norvegicus [1]; 15 mg/kg): 3.1 mL and 4.6 mL
16 |  | NS(=O)(=O)c1cc(N2CCN(CC(O)COc3cccc4ccccc34)CC2)ccc1Cl (stereo not given) | 2.2 | 3.2 | 2 | 2.4 | 1.3 | 1.4 | 1.8 | 1.7 | 2.9 | 1.2 | 1.4 | 1.9 | 
17 |  | NS(=O)(=O)c1cc(C(=O)NCCNCC(O)COc2cccc3c2CCC(=O)N3)ccc1Cl (stereo not given) | 2.6 | 2.9 | 1.8 | 2.6 | 1.8 | 1.5 | 1.4 | 2 | 3.3 | 1.3 | 1.6 | 2.8 | 
18 |  | NS(=O)(=O)c1cc(C(=O)NCCNCC(O)COc2cccc3c2SCC(=O)N3)ccc1Cl (stereo not given) |  | 1.7 | 1.1 | 0.9 | 0.8 | 0.9 | 1.1 | 1.1 | 2 | 1.2 | 1.5 | 1.2 | Urinary output (Rattus norvegicus [17]): 1.7 mL; Activity (Rattus norvegicus [18]): 1.5 m equiv kg-1; Activity (Rattus norvegicus [19]): 3.1 m equiv kg-1; Ratio [20]: 2.1; Urinary output (Rattus norvegicus [21]): 4.3 mL
19 | Not Active | NS(=O)(=O)c1cc(N2CCN(CC(O)COc3cccc4c3CCC(=O)N4)CC2)ccc1Cl (stereo not given) |  |  |  |  |  |  |  |  |  |  |  |  | 
